Test [1] has as its target T1, FLT3 kinase (Homo sapiens, UniProt P36888).
T1 sequence (P36888 27-993): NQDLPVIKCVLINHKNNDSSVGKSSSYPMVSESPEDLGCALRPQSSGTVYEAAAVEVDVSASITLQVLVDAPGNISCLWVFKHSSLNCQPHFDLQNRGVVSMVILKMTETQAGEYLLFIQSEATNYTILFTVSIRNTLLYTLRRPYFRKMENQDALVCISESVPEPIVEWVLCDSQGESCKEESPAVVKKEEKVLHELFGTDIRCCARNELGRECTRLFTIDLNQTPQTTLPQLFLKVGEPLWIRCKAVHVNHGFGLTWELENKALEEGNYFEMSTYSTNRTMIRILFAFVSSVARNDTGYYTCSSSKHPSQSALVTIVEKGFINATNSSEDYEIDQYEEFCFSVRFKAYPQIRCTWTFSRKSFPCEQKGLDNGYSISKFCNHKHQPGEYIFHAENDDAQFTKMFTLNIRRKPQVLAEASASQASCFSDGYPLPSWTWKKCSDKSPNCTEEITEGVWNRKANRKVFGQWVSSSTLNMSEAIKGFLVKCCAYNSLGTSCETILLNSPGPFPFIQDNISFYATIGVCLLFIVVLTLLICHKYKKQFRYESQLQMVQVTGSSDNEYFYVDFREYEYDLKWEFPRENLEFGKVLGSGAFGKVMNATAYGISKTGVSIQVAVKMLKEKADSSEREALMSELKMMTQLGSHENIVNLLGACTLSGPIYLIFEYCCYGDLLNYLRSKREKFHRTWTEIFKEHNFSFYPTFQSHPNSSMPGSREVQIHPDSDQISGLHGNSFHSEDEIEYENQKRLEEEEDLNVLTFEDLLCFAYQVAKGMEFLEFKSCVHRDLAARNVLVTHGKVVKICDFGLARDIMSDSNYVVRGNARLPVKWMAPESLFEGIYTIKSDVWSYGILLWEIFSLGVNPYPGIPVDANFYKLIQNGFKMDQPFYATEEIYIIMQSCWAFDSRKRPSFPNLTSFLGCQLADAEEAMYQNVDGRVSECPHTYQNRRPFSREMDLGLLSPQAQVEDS
As to the kind of experiment: Activity of inhibiting FLT3 kinase (fluorescein labeled peptide kinase assay). The note with it: in vitro kinase assay, 28° C. In kind it is biochemical. The procedure:
Activity of Inhibiting FLT3 Kinase
1. Preparation of 1 × Kinase Buffer and Termination Buffer:
(1) MnCl2-free 1× kinase buffer: 50 mM HEPES, pH 7.5, 0.0015% Brij-35, 10 mM MgCl2, 2 mM DTT;
(2) Termination buffer: 100 mM HEPES, pH 7.5, 0.015% Brij-35, 0.2% Coating Reagent #3, 50 mM EDTA.
2. Preparation of compounds for testing kinase: the compounds are diluted continuously.
(1) the compound was diluted to 50 times the maximum final concentration with 100% DMSO. […] of the solution containing the compound at this concentration was transferred to one hole of 96-well plate;
(2)10 concentrations of compounds were prepared by diluting 20 mL original solution with 60 mL DMSO;
(3) […] solution of 100% DMSO was added into two empty holes as compound-free control and enzyme-free control; (4) a transitional plate was prepared, 10 mL compounds at different concentrations were transferred from the original plate to the transitional plate respectively, 90 mL 1× kinase buffer was added, and then mixed under oscillation for 10 minutes;
(5) preparation of an experimental plate: 5 mL solution containing compounds was transferred from the hole of the transitional plate of the 96-well plate to the corresponding hole of 384-well plate.
(1) Preparation of 2.5× enzyme solution: enzyme was added to the 1× kinase buffer;
(2) Preparation of 2.5× peptide solution: a fluorescein labeled peptide and ATP were added to the 1× kinase buffer;
(3) 10 mL 2.5× enzyme solution was added to an experimental 384-well plate containing the compound solution with a concentration of 10% containing 5 mL DMSO and incubated at room temperature for 10 minutes;
(4) 10 mL 2.5× peptide solution was added to an experimental 384-well plate;
(5) kinase reaction and termination: Incubation was carried out at 28° C. for certain time, 25 mL termination buffer was added to terminate the reaction.
Data was read and collected.
(1) detected data was copied and converted
(2) data was converted to inhibitory rate
Inhibitory rate=(Maximum Value−Sample Value)/(Maximum Value−Minimum Value)*100;
wherein “Maximum Value” is the value of DMSO control; “Minimum Value” is the value of kinase-free control hole.
(3) the data was input an analysis software to obtain IC50 value.

Test [2] relates to human acute myeloid leukemia cell strain OCI-AML-3 (expressing FLT3A680V mutant gene). In words: Effects on proliferation of tumor cells (Cell Titer-Glo), OCI-AML-3. It counts as cell-based. The following applies: OCI-AML-3, incubated for 72 hours. An excerpt:
(§1) This example tested the effects of the compounds of the present invention (the compound shown in Formula (I), hydrochloride salt, phosphate, mesylate, lactate, acetate, sulphate, and hydrobromide thereof prepared in EXAMPLES 1-8 respectively) on proliferation of tumor cells, and further evaluated the inhibitory effects of the compounds on proliferation of tumor cells and selectivity of the compounds in inhibiting proliferation of tumor cells.
(4) human acute myeloid leukemia cell strain OCI-AML-3 (expressing FLT3A680V mutant gene);
(§2) The compounds at different concentration (0.000508 μM, 0.00152 μM, 0.00457 μM, 0.0137 μM, 0.0411 μM, 0.123 μM, 0.370 μM, 1.11 μM, 3.33 μM, 10 μM in DMSO) were added to the above-mentioned cells respectively, incubated for 72 hours, Cell Titer-Glo (Promega, United States of America) Chemiluminescence Kit was used to quantify ATP in living cells to detect the number of living cells, the results were shown as Table 3
In general terms: ATP-based viability assays read luminescence as a measure of living cells.

The subject of test [3] is human acute myeloid leukemia cell strain U937 (expressing wild-type FLT3 gene). As to the kind of experiment: Effects on proliferation of tumor cells (Cell Titer-Glo), U937. It counts as cell-based.
Source text: as §1
(5) human acute myeloid leukemia cell strain U937 (expressing wild-type FLT3 gene);
as §2

Molecules are shown by their SMILES. Bounds are passed on as bounds.

The term IC50 denotes the concentration that gives 50% inhibition. As for `Nc1sc(-c2c(F)cccc2F)nc1C(=O)Nc1cncnc1OCC1CCNCC1` [Compound of Formula (I), 5-amino-2-(2,6-difluorophenyl)-N-(4-(piperidine-4-methoxy)pyrimidine-5-) thiazole-4-formamide], the IC50 in test [1] is 40 nM; in test [2] (Homo sapiens) it was 0.34 µM; in test [3] (Homo sapiens, U-937, U937, incubated for 72 hours), at least 13.4 µM.

`Cl.Nc1sc(-c2c(F)cccc2F)nc1C(=O)Nc1cncnc1OCC1CCNCC1` [Hydrochloride salt of compound of Formula (I)]: the IC50 was found to be 15 nM in test [1]; 0.05 µM in test [2]; 6.21 µM in test [3] (U937, incubated for 72 hours).

For the molecule `CC(=O)O.Nc1sc(-c2c(F)cccc2F)nc1C(=O)Nc1cncnc1OCC1CCNCC1` [Acetate of compound of Formula (I)], the IC50 in test [1] turned out to be 27 nM; in test [2], 0.32 µM; in test [3] (U937, incubated for 72 hours) it was 2.09 µM.

With `CC(O)C(=O)O.Nc1sc(-c2c(F)cccc2F)nc1C(=O)Nc1cncnc1OCC1CCNCC1` [Lactate of compound of Formula (I)], the IC50 in test [1] is 25 nM; in test [2], 0.08 µM; in test [3] (U937, incubated for 72 hours), 9.05 µM.

In the case of `Br.Nc1sc(-c2c(F)cccc2F)nc1C(=O)Nc1cncnc1OCC1CCNCC1` [Hydrobromide of compound of Formula (I)], the concentration for half-maximal inhibition (IC50) is 39 nM in test [1]; 0.11 µM in test [2]; 4.66 µM in test [3] (U937, incubated for 72 hours).

Turning to `Nc1sc(-c2c(F)cccc2F)nc1C(=O)Nc1cncnc1OCC1CCNCC1.O=S(=O)(O)O` [Sulphate of compound of Formula (I)], the IC50 was 28 nM in test [1]; 0.21 µM in test [2]; 3.56 µM in test [3] (U937, incubated for 72 hours).

As to `CS(=O)(=O)O.Nc1sc(-c2c(F)cccc2F)nc1C(=O)Nc1cncnc1OCC1CCNCC1` [Mesylate of compound of Formula (I)], the IC50 in test [1] worked out at 28 nM; in test [2], 0.06 µM; in test [3] (U937, incubated for 72 hours), 7.42 µM.

These data come from patent US20190255048A1, “PYRIMIDINE COMPOUND OR SALT THEREOF IN APPLICATION FOR MANUFACTURING PHARMACEUTICAL PRODUCT FOR PREVENTING AND/OR TREATING FLT3-RELATED DISEASE OR DISORDER” (SHENZHEN HAIBIN PHARMACEUTICAL CO., LTD, priority 2016, published 2019).
